Values quoted from earlier work in patent US20170095440A1, “METHOD OF TREATING CANINE PANCREATITIS” (CK9, LLC, priority 2014, published 2017).

System: serine protease
Conditions: hydrolysis products of Camostat Mesilate; cited from earlier work

| Compound | Anti-proteolytic activity |
| --- | --- |
| N=C(N)Nc1ccc(C(=O)O)cc1 [GBA, 4-guanidinobenzoic acid] | non-active |
| N=C(N)Nc1ccc(C(=O)Oc2ccc(CC(=O)O)cc2)cc1 [GBPA, 4-(4-guanidino-benzoyloxy) phenylacetic acid] | active anti-proteolytic metabolite |
